Test results published in patent US9145414B2, “1,2,4-triazine-6-carboxamide derivative” (TAIHO PHARMACEUTICAL CO., LTD., priority 2011, dated 2015).
Like-named read-outs stand apart in the source and are kept apart here.

Assays:
[1] = tested on: SU-DHL-6 cells (diffuse large-cell lymphoma cell line); assay: Cell growth inhibition test; format: cell-based; settings: read-out: Cell growth inhibition IC50
Procedure: The compound of the present invention was serially diluted with dimethyl sulfoxide and then added to an RPMI1640 medium containing 10% FBS. Each resulting solution was added at a concentration of 100 μl/well to the preceding SU-DHL-6 cell culture plate (final concentration of the compound: 10, 3, 1, 0.3, 0.1, 0.03, 0.01, and 0.003 μM). The cells were cultured at 37° C. for 3 days in an incubator containing 5% CO2. The cells thus cultured were left at room temperature for 30 minutes and then centrifuged at 1500 rpm for 3 minutes using a centrifuge (Hitachi Koki Co., Ltd., Himac CF7D2). A 100 μl aliquot of the supernatant was removed from each well to allow 100 μl of the cell culture solution to remain therein. This 100 μl of the remaining cell culture solution was supplemented with an equal amount of CellTiter-Glo Luminescent Cell Viability Assay (Promega KK, Cat#: G7573), and the mixture was then shaken for 1 minute using a plate mixer. The reaction solution was left in the dark for 10 minutes. Then, luminescence intensity derived from live cells of each well was measured using a microplate reader (PerkinElmer Inc., ARVOsx). […] Likewise, the IC50 values (μM) of the control compounds were also calculated and then compared with that of the compound of the present invention. Rate of cell growth inhibition(%)=(C−T)/C×100 T: luminescence intensity (count per second) of a well supplemented with the test compound C: luminescence intensity (count per second) of a well non-supplemented with the test compound

human Syk protein = human Syk protein (Homo sapiens (Human), UniProt P43405); assay: Syk kinase inhibition test; format: biochemical; settings: Table 95; read-out: SYK inhibitory activity IC50
Procedure: Finally, phosphorylated peptides and non-phosphorylated peptides were separated therebetween using LabChip™ 3000 system (Caliper Life Sciences, Inc., excitation wavelength: 488 nm, detection wavelength: 530 nm). Their respective amounts were measured, and the rate of phosphorylation reaction was then determined from the ratio between the amounts. The concentration at which the compound can inhibit 50% phosphorylation reaction is defined as an IC50 value (μM).
Also, known 1,2,4-triazine-6-carboxamide derivatives A, B, and C (WO2000/075113 (A: compound No. 121 and B: compound No. 154) and WO2000/076980 (C: compound No. 39)) were synthesized as control compounds. Their IC50 values (μM) were calculated in the same way as above and then compared with that of the compound of the present invention.

[2] = Homo sapiens, 72 h, SU-DHL-6 cells, 3 days culture, Table 96
[3] = SU-DHL-6 cells, 3 days culture, Table 96

| IC50 [1, 2] [nM] | IC50 (human Syk protein) [nM] | IC50 [1, 3] [nM] | Structure (SMILES) | IC50 ([1]; Homo sapiens, SU-DHL-6, 72 h) [nM] |
| --- | --- | --- | --- | --- |
| 177 | 0.36 | – | NC(=O)c1nnc(N[C@@H]2CCCC[C@@H]2N)nc1Nc1ccc2cnn(C(F)F)c2c1 [Example 165] | – |
| 179 | 0.52 | – | NC(=O)c1nnc(N[C@@H]2CCCC[C@@H]2N)nc1Nc1ccc2nn(C(F)F)cc2c1 [Example 57, 3-((1R,2S)-2-aminocyclohexylamino)-5-(2-(difluoromethyl)-2H-indazol-5-ylamino)-1,2,4-triazine-6-carboxamide] | – |
| 49 | 0.26 | – | Cn1cc(-n2ccc3c(Nc4nc(N[C@@H]5CCCC[C@@H]5N)nnc4C(N)=O)cccc32)cn1 [Example 67, 3-(((1R,2S)-2-aminocyclohexyl)amino)-5-((1-(1-methyl-1H-pyrazol-4-yl)-1H-indol-4-yl)amino)-1,2,4-triazine-6-carboxamide] | – |
| 24 | 0.23 | – | Cn1cc2cc(Nc3nc(N[C@@H]4CCCC[C@@H]4N)nnc3C(N)=O)cc(-c3ccccc3)c2n1 [Example 65, 3-(((1R,2S)-2-aminocyclohexyl)amino)-5-((2-methyl-7-phenyl-2H-indazol-5-yl)amino)-1,2,4-triazine-6-carboxamide] | – |
| 41 | 0.22 | – | NC(=O)c1nnc(N[C@@H]2CCCC[C@@H]2N)nc1Nc1cccc2c1ccn2C(F)F [Example 26, 3-((1R,2S)-2-aminocyclohexylamino)-5-(1-(difluoromethyl)-1H-indol-4-ylamino)-1,2,4-triazine-6-carboxamide] | – |
| 85 | 0.53 | – | Cc1cc(Nc2nc(N[C@@H]3CCCC[C@@H]3N)nnc2C(N)=O)c2ccn([C@H]3CC[C@H](O)CC3)c2c1 [Example 78] | – |
| 155 | 0.95 | – | COC[C@H](N)[C@@H](C)Nc1nnc(C(N)=O)c(Nc2cc(C)c3nn(C(C)(C)C)cc3c2)n1 [Example 274] | – |
| – | 33 | 2000 | NC(=O)c1ccc(NC2CCCCC2N)cc1Nc1ccccc1Br (stereo not drawn) [A, reference compound] | – |
| 138 | 0.43 | – | CCn1ncc2ccc(Nc3nc(N[C@@H]4CCCC[C@@H]4N)nnc3C(N)=O)cc21 [Example 154] | – |
| 106 | 0.33 | – | Cc1cc(Nc2nc(N[C@@H]3CCCC[C@@H]3N)nnc2C(N)=O)c2ccn(C)c2c1 [Example 60, 3-(((1R,2S)-2-aminocyclohexyl)amino)-5-((1,6-dimethyl-1H-indol-4-yl)amino)-1,2,4-triazine-6-carboxamide] | – |
| 128 | 0.41 | – | Cc1cc(Nc2nc(N[C@@H]3CCOC[C@@H]3N)nnc2C(N)=O)c2ccn(C)c2c1 [Example 267] | – |
| 107 | 0.51 | – | NC(=O)c1nnc(N[C@@H]2CCCC[C@@H]2N)nc1Nc1cccc2c1ccn2CCF [Example 35, 3-((1R,2S)-2-aminocyclohexylamino)-5-(1-(2-fluoroethyl)-1H-indol-4-ylamino)-1,2,4-triazine-6-carboxamide] | – |
| 138 | 0.26 | – | Cc1cc(Nc2nc(N[C@@H]3CCCC[C@@H]3N)nnc2C(N)=O)cc2nn(C)cc12 [Example 91, 3-(((1R,2S)-2-aminocyclohexyl)amino)-5-((2,4-dimethyl-2H-indazol-6-yl)amino)-1,2,4-triazine-6-carboxamide diformate] | – |
| 65 | 0.42 | – | NC(=O)c1nnc(N[C@@H]2CCCC[C@@H]2N)nc1Nc1cccc2c1ccn2C1COC1 [Example 34, 3-((1R,2S)-2-aminocyclohexylamino)-5-(1-(oxetan-3-yl)-H-indol-4-ylamino)-1,2,4-triazine-6-carboxamide] | – |
| 191 | 0.39 | – | CCn1ncc2c(C)cc(Nc3nc(N[C@@H]4CCCC[C@@H]4N)nnc3C(N)=O)cc21 [Example 97, 3-(((1R,2S)-2-aminocyclohexyl)amino)-5-((1-ethyl-4-methyl-1H-indazol-6-yl)amino)-1,2,4-triazine-6-carboxamide] | – |
| 125 | 0.5 | – | Cc1cc(Nc2nc(N[C@@H]3CCCC[C@@H]3N)nnc2C(N)=O)cc2nn(C(F)F)cc12 [Example 265, 3-(((1R,2S)-2-aminocyclohexyl)amino)-5-((2-(difluoromethyl)-4-methyl-2H-indazol-6-yl)amino)-1,2,4-triazine-6-carboxamide] | – |
| 49 | 0.38 | – | Cn1cc2cc(Nc3nc(N[C@@H]4CCOC[C@@H]4N)nnc3C(N)=O)cc(-c3ccccc3)c2n1 [Example 257, 3-(((3R,4R)-3-aminotetrahydro-2H-pyran-4-yl)amino)-5-((2-methyl-7-phenyl-2H-indazol-5-yl)amino)-1,2,4-triazine-6-carboxamide] | – |
| 82 | 0.42 | – | NC(=O)c1nnc(N[C@@H]2CCCC[C@@H]2N)nc1Nc1cc(-c2ccccn2)cs1 [Example 77, 3-(((1R,2S)-2-aminocyclohexyl)amino)-5-((4-(pyridin-2-yl)thiophen-2-yl)amino)-1,2,4-triazine-6-carboxamide] | – |
| 149 | 0.67 | – | NC(=O)c1nnc(N[C@@H]2CCCC[C@@H]2N)nc1Nc1cccc2c1ccn2CCO [Example 93, 3-(((1R,2S)-2-aminocyclohexyl)amino)-5-((1-(2-hydroxyethyl)-1H-indol-4-yl)amino)-1,2,4-triazine-6-carboxamide] | – |
| 157 | 0.35 | – | COC[C@H](N)[C@@H](C)Nc1nnc(C(N)=O)c(Nc2cc(C)cc3c2ccn3C)n1 [Example 256, 3-(((2R,3R)-3-amino-4-methoxybutan-2-yl)amino)-5-((1,6-dimethyl-1H-indol-4-yl)amino)-1,2,4-triazine-6-carboxamide] | – |
| 181 | 0.41 | – | NC(=O)c1nnc(N[C@@H]2CCOC[C@@H]2N)nc1Nc1cccc2c1ccn2C1CCC1 [Example 277] | – |
| – | 6.8 | 1900 | NC(=O)c1ccc(NC2CCCCC2N)cc1Nc1cccc2c1OCO2 (stereo not drawn) [B, reference compound] | – |
| 60 | 0.29 | – | COC[C@H](N)[C@@H](C)Nc1nnc(C(N)=O)c(Nc2cc(-c3ccccc3)c3nn(C)cc3c2)n1 [Example 258] | – |
| 178 | 0.58 | – | NC(=O)c1nnc(N[C@@H]2CCOC[C@@H]2N)nc1Nc1ccc2cnn(C(F)F)c2c1 [Example 170] | – |
| 100 | 0.36 | – | Cn1ccc(-n2ccc3c(Nc4nc(N[C@@H]5CCCC[C@@H]5N)nnc4C(N)=O)cccc32)n1 [Example 25, 3-((1R,2S)-2-aminocyclohexylamino)-5-(1-(1-methyl-1H-pyrazol-3-yl)-1H-indol-4-ylamino)-1,2,4-triazine-6-carboxamide] | – |
| 92 | 0.29 | – | NC(=O)c1nnc(N[C@@H]2CCCC[C@@H]2N)nc1Nc1cc(-c2ccccc2)cs1 [Example 164] | – |
| 158 | 0.35 | – | CC[C@H](N)CNc1nnc(C(N)=O)c(Nc2cccc3sccc23)n1 [Example 245] | – |
| – | 620 | > 10000 | Cc1cccc(Nc2cc(NCCN(C)C)ccc2C(N)=O)c1 [C, reference compound] | – |
| 128 | 0.29 | – | NC(=O)c1nnc(N[C@@H]2CCCC[C@@H]2N)nc1Nc1csc2ccccc12 [Example 212] | – |

| Structure (SMILES) | IC50 [1, 2] [nM] | IC50 (human Syk protein) [nM] | IC50 [1, 3] [nM] | IC50 ([1]; Homo sapiens, SU-DHL-6, 72 h) [nM] |
| --- | --- | --- | --- | --- |
| [2H]C([2H])([2H])C([2H])([2H])n1ncc2cc(Nc3nc(N[C@H]4CCCNC4)nnc3C(N)=O)ccc21 [Example 7, (S)-5-(1-(ethyl-d5)-1H-indazol-5-ylamino)-3-(piperidin-3-ylamino)-1,2,4-triazine-6-carboxamide diformate] | – | 0.92 | – | 174 |
